Numbers after ± are expanded uncertainties.
Columns and labels:
[1] = Liquid; for mass density: Vibrating tube method; for viscosity: 101 kPa, Concentric cylinders viscometry
[2] = molar heat capacity at constant pressure; conditions: Liquid, Flow calorimetry

Structure (SMILES): C1CCCCC1 [cyclohexane]
- mass density ([1]; 293.15 K, 100 kPa): 778.4 ± 0.7 kg/m3
- viscosity ([1]; 293.15 K): 0.98 ± 0.021 mPa·s
- mass density ([1]; 293.15 K, 1000 kPa): 779.1 ± 0.7 kg/m3
- mass density ([1]; 293.15 K, 2000 kPa): 779.9 ± 0.7 kg/m3
- mass density ([1]; 293.15 K, 5000 kPa): 782.4 ± 0.7 kg/m3
- mass density ([1]; 293.15 K, 10000 kPa): 786.3 ± 0.7 kg/m3
- mass density ([1]; 293.15 K, 15000 kPa): 789.9 ± 0.7 kg/m3
- mass density ([1]; 293.15 K, 20000 kPa): 793.4 ± 0.7 kg/m3
- mass density ([1]; 303.15 K, 100 kPa): 769 ± 0.7 kg/m3
- viscosity ([1]; 303.15 K): 0.824 ± 0.018 mPa·s
- mass density ([1]; 303.15 K, 1000 kPa): 769.8 ± 0.7 kg/m3
- mass density ([1]; 303.15 K, 2000 kPa): 770.7 ± 0.7 kg/m3
- mass density ([1]; 303.15 K, 5000 kPa): 773.3 ± 0.7 kg/m3
- mass density ([1]; 303.15 K, 10000 kPa): 777.5 ± 0.7 kg/m3
- mass density ([1]; 303.15 K, 15000 kPa): 781.3 ± 0.7 kg/m3
- mass density ([1]; 303.15 K, 20000 kPa): 785.1 ± 0.8 kg/m3
- mass density ([1]; 303.15 K, 30000 kPa): 792.1 ± 0.8 kg/m3
- mass density ([1]; 303.15 K, 40000 kPa): 798.5 ± 0.8 kg/m3
- mass density ([1]; 313.15 K, 100 kPa): 759.7 ± 0.7 kg/m3
- viscosity ([1]; 313.15 K): 0.701 ± 0.015 mPa·s
- mass density ([1]; 313.15 K, 1000 kPa): 760.3 ± 0.7 kg/m3
- mass density ([1]; 313.15 K, 2000 kPa): 761.2 ± 0.7 kg/m3
- mass density ([1]; 313.15 K, 5000 kPa): 764 ± 0.7 kg/m3
- mass density ([1]; 313.15 K, 10000 kPa): 768.4 ± 0.7 kg/m3
- mass density ([1]; 313.15 K, 15000 kPa): 772.6 ± 0.7 kg/m3
- mass density ([1]; 313.15 K, 20000 kPa): 776.6 ± 0.8 kg/m3
- mass density ([1]; 313.15 K, 30000 kPa): 784.1 ± 0.8 kg/m3
- mass density ([1]; 313.15 K, 40000 kPa): 790.9 ± 0.8 kg/m3
- mass density ([1]; 323.15 K, 100 kPa): 750.1 ± 0.7 kg/m3
- viscosity ([1]; 323.15 K): 0.593 ± 0.013 mPa·s
- mass density ([1]; 323.15 K, 1000 kPa): 750.8 ± 0.7 kg/m3
- mass density ([1]; 323.15 K, 2000 kPa): 751.8 ± 0.7 kg/m3
- mass density ([1]; 323.15 K, 5000 kPa): 754.8 ± 0.7 kg/m3
- mass density ([1]; 323.15 K, 10000 kPa): 759.5 ± 0.7 kg/m3
- mass density ([1]; 323.15 K, 15000 kPa): 763.9 ± 0.7 kg/m3
- mass density ([1]; 323.15 K, 20000 kPa): 768.2 ± 0.8 kg/m3
- mass density ([1]; 323.15 K, 30000 kPa): 776.1 ± 0.8 kg/m3
- mass density ([1]; 323.15 K, 40000 kPa): 783.2 ± 0.8 kg/m3
- mass density ([1]; 333.15 K, 100 kPa): 740.3 ± 0.7 kg/m3
- viscosity ([1]; 333.15 K): 0.522 ± 0.012 mPa·s
- mass density ([1]; 333.15 K, 1000 kPa): 741.1 ± 0.7 kg/m3
- mass density ([1]; 333.15 K, 2000 kPa): 742.2 ± 0.7 kg/m3
- mass density ([1]; 333.15 K, 5000 kPa): 745.5 ± 0.7 kg/m3
- mass density ([1]; 333.15 K, 10000 kPa): 750.5 ± 0.7 kg/m3
- mass density ([1]; 333.15 K, 15000 kPa): 755.3 ± 0.7 kg/m3
- mass density ([1]; 333.15 K, 20000 kPa): 759.7 ± 0.8 kg/m3
- mass density ([1]; 333.15 K, 30000 kPa): 768.1 ± 0.8 kg/m3
- mass density ([1]; 333.15 K, 40000 kPa): 775.6 ± 0.8 kg/m3
- molar heat capacity at constant pressure ([2]; 293.15 K, 100 kPa): 154.7 ± 1.6 J/K/mol
- molar heat capacity at constant pressure ([2]; 293.15 K, 5000 kPa): 153.8 ± 1.6 J/K/mol
- molar heat capacity at constant pressure ([2]; 293.15 K, 10000 kPa): 152.5 ± 1.5 J/K/mol
- molar heat capacity at constant pressure ([2]; 293.15 K, 15000 kPa): 150.5 ± 1.5 J/K/mol
- molar heat capacity at constant pressure ([2]; 293.15 K, 20000 kPa): 149.7 ± 1.5 J/K/mol
- molar heat capacity at constant pressure ([2]; 293.15 K, 25000 kPa): 147.7 ± 1.5 J/K/mol
- molar heat capacity at constant pressure ([2]; 313.15 K, 25000 kPa): 154.6 ± 1.6 J/K/mol

— the NIST ThermoML archive (doi:10.1016/j.jct.2014.01.020)
